From publication PMC5274652, “Antagonizing Retinoic Acid Receptors Increases Myeloid Cell Production by Cultured Human Hematopoietic Stem Cells” (Archivum Immunologiae et Therapiae Experimentalis, 2016)

What was measured:
human RARβ = biological target: T1, human RARβ (Homo sapiens, UniProt P10826); experiment: Competition with [3H]-ATRA binding, nuclear extracts of Sf21 cells expressing RARβ; conditions: nuclear extracts of baculovirus-infected Sf21 cells, read-out: Binding affinity ED50, RARβ
T1 construct: made in house
T1 sequence (P10826 1-455): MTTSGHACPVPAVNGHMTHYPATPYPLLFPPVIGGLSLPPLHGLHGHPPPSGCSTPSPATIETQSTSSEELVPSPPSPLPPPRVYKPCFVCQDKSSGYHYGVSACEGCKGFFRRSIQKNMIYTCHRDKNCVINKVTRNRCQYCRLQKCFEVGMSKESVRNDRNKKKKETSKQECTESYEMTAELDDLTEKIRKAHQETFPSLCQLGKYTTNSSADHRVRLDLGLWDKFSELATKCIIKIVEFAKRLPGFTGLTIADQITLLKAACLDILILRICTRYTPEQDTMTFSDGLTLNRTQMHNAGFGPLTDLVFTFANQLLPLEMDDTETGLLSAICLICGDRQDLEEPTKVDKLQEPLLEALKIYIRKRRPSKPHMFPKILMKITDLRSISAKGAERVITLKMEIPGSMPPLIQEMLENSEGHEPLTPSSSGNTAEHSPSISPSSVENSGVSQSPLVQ

human RARγ = biological target: T2, human RARγ (Homo sapiens, UniProt P13631); experiment: Competition with [3H]-ATRA binding, nuclear extracts of Sf21 cells expressing RARγ; conditions: nuclear extracts of baculovirus-infected Sf21 cells, read-out: Binding affinity ED50, RARγ
T2 construct: made in house
T2 sequence (P13631 1-454): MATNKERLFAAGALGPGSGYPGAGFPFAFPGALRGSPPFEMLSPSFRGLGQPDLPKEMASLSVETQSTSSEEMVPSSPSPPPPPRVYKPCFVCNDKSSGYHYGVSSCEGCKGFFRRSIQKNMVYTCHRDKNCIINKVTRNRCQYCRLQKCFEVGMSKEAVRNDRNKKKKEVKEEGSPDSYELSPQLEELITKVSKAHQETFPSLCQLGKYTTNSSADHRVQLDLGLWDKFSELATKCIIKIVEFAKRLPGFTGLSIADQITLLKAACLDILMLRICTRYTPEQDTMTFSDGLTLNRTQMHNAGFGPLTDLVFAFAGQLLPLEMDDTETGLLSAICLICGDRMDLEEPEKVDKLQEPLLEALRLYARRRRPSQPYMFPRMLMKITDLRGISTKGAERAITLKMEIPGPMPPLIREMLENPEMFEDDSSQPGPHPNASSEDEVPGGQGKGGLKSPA

NB-4 cells = experiment: Differentiation of NB-4 cells (CD11b/CD14 flow cytometry); format: cell-based, human; conditions: 96 h
Method: (§1) NB-4 and KG1 cells were obtained from the German Resource Center for Biological Material (DSMZ GmbH, Braunschweig, Germany). The cells were grown in RPMI-1640 medium supplemented with 10 % fetal bovine serum (FBS), 100 U/ml penicillin, and 100 µg/ml streptomycin (Sigma, St Louis, MO, USA). Cells were grown at 37 °C in 5 % CO2.
(§2) The expression of differentiation markers at the cell surface was determined by flow cytometry. Differentiation of NB-4 and KG1 cells was measured by staining using the monoclonal antibodies CD11b-FITC and CD14-PE and appropriately labeled isotype controls (all from ImmunoTools, Friesoythe, Germany). Differentiation of human CD34^+ve cells was measured by triple-color staining using various cocktails of phycoerythrin-, fluorescein isothyocyanate-, and PerCP-monoclonal antibodies (from Becton–Dickinson, San Jose, CA, USA). The markers used to identify cell populations were as follows: CD45^+ve leukocytes; CD34^+ve/CD133^+ve HSCs; CD33^+ve/CD13^+ve immature myeloid; CD117^+ve myeloblasts and promyelocytes; CD11b^+ve/CD15^+ve mature myeloid; CD11b^+ve/CD65^+ve neutrophils; CD11b^+ve/CD14^+ve monocytes; glycophorin^+ve A erythroid cells; CD61^+ve megakaryoblasts and platelets; CD2^+ve/CD5^+ve/CD7^+ve T cells and NK cells; CD56^+ve NK cells; CD19^+ve/CD20^+ve B cells; and CD10^+ve B lymphocyte progenitors; and present on mature neutrophils and DR^+ve progenitors and present on mature monocytes. The cells were stained with 1 µl of the fluorescently labeled antibody (or the appropriate control immunoglobulin) for 1 h on ice. Next, they were washed with ice-cold phosphate-buffered saline (PBS) and suspended in 0.5 ml PBS supplemented with 0.1 % bovine serum albumin (Sigma, St Louis, MO, USA) prior to analysis on FACS Calibur flow cytometer (Becton–Dickinson, San Jose, CA, USA). The acquisition parameters were set for an isotype control. Cells were analyzed using a FACSCalibur, and data analysis was performed using the CellQuest Pro software (Becton–Dickinson, San Jose, CA, USA).

KG1 cells = experiment: Differentiation of KG1 cells (CD11b/CD14 flow cytometry); format: cell-based, human; conditions: 96 h
Method: as §1, §2

CD34^+vehuHSCs = conditions: 100 nM, 2 weeks, 2 donors
Method: Assays for week-five cobblestone area forming cells (CAFC), long-term culture-initiating cells (LTC-IC), and colony-forming units (CFU) were performed at the Stem Cell Laboratory at the National Blood Service Stem Cell Laboratory using standard procedures and methods, as described by other workers (de […] and Ploemacher [2001]; Denning-Kendall et al. [1996]; Nicol et al. [1996]). CFU assays were performed using Methocult^TM GF H8444 (StemCell Technologies) and in 35 mm petri dishes. The presence of CAFC was scored as the presence of 12 or more closely associated and small cells that were embedded in the MS5 cell feeder layer and blind by an experienced reader. The nature of CFUs, as to colony-forming unit-granulocyte/erythroid/megakaryocyte/monocyte (CFU-GEMM), colony-forming unit-granulocyte/macrophage (CFU-GM), burst-forming unit-erythroid (BFU-E), and colony-forming unit-erythroid (CFU-E), was scored blind at the service by a person who routinely reads colony assays and is accredited. The nature of colonies was confirmed by sampling colonies and staining cytocentrifuged preparations of cells.

For `CCc1ccc(C2=CC(C)(C)Sc3ccc(C#Cc4ccc(C(=O)O)cc4)cc32)cc1` [AGN194310], the IC50 (human RARβ) was 5 nM, the IC50 (human RARγ) was 2 nM and the “effect on differentiation of NB-4 cells” value (NB-4 cells; 100 nM with 10 nM 1,25D, compared with 1,25D alone) was “did not have an appreciable effect”. The “effect on differentiation of NB-4 cells” value (NB-4 cells; 100 nM, used alone) was “no effect”, the “effect on differentiation of KG1 cells” value (KG1 cells; 100 nM together with 10 nM 1,25D) was “no effect” and the “effect on differentiation of KG1 cells” value (KG1 cells; 100 nM, used alone) was “no effect”. The “BFU-E together with CFU-E as share of the total colony-forming units” value (CD34^+vehuHSCs; control 7 %) was 41%, the “CFU-GM as share of the total colony-forming units” value (CD34^+vehuHSCs; control 93 %) was 56% and the “CFU-GEMM as share of the total colony-forming units” value (CD34^+vehuHSCs; control not detected) was 3%.
